Experimental data as given in patent US8268836B2, “Compound useful as a c-Met inhibitor” (Eli Lilly and Company, priority 2010, dated 2012).
In brackets after ≈: the same amount, converted by molar mass. Read-outs that look alike come from different tables or passages of the source.

Assays:
[1] = test system: KP4 pancreatic xenografts; assay: Xenograft tumor model KP4; format: in vivo, mice
Method: Human glioblastoma cells U87MG, human gastric cancer cells MKN45, or human pancreatic KP4 cells are cultured and implanted subcutaneously in the rear flank of female CD-1 nu/nu strain mice which have been acclimated for one week in the animal facility after receipt from the vendor. Mice are randomized into groups of 10 mice per group. Testing compound is prepared in an appropriate vehicle and is administered by oral gavage when tumors are established (7-21 days after implant, or when the mean tumor volume reaches ˜100 mm^3). Tumor response is determined by tumor volume measurement performed twice a week during the course of treatment. Fluctuations in body weight are also monitored as a general measurement of toxicity. The compound of example 1 is orally administered twice a day for 28 days.
For statistical analysis, the individual subject tumor volumes are transformed to log volume and are analyzed with a two-way repeated measures analysis of variance by time and treatment using the MIXED procedures in SAS software (version 8.2). The correlation model for the repeated measures is spatial power. Treated groups are compared to the control group at the final time point. The MIXED procedure is also used separately for each treatment group to calculate adjusted means and standard errors at each time point. Both analyses account for the autocorrelation within each subject.

[2] = Dynamic solubility; format: physicochemical; conditions: for solubility at 18 h: thermodynamic from solid
Method: The media included simulated gastric fluid (SGF) which comprise of 0.01N HCl, 0.05% sodium lauryl sulfate, and 0.2% NaCl; fasted state simulated intestinal fluid (SIF-fasted) which composed of 29 mM NaH2PO4, 3 mM Na taurocholate, 0.75 mM lecithin, 103 mM NaCl, and NaOH to pH 6.5; fed state simulated intestinal fluid (SIF-fed) which comprise of 144 mM acetic acid, 15 mM Na taurocholate, 3.75 mM lecithin, 204 mM NaCl, and NaOH to pH 5.0; and pH 4.5, 6, 7.5 buffers which are 28-56 mM phosphate buffers. The compound concentrations are determined using Agilent 1200 HPLC (LC5) with a UV detector. Mobile phase uses A (85%) which is water containing 0.1% TFA and B (15%) which is ACN at a flow rate of 1 mL/min and run time of 10 min. Column of Zorbax, Bonus-RP (3.5 μm, 4.6×75 mm; SN: USTM002428) is used in the studies.

[3] = Rat bioavailability study; format: in vivo
Method: In rat bioavailability studies, each compound is administered intravenously (IV) or orally (PO). Intravenous dosing is formulated in solution formulation and oral dosing is formulated in 10% w/v acacia. Rat blood samples are collected using anti-coagulant (EDTA) collection tubes and centrifugation is performed to obtain plasma samples. Aliquots of plasma are pipetted and stored immediately at <−20° C. Shipments of plasma samples are packed in dry ice if needed and samples are frozen at <−20° C. until analysis.
A stock solution of each drug is prepared and is diluted into pooled rat plasma to prepare standards. Plasma standards or samples are treated by protein precipitation or liquid-liquid extraction using organic solvent containing internal standard. The mixtures are centrifuged and aliquots of the resulting supernatant fractions are transferred. In the case of protein precipitation, supernatant is diluted and analyzed using a Mass Spectrometer coupled to a HPLC System and an autosampler. In the case of liquid-liquid-extraction, supernatant is dried under N2 at 40° C., reconstituted and analyzed using a Mass Spectrometer coupled to a HPLC System and an autosampler. Quantitation is performed using multiple reaction monitoring (MRM) and linear regression plots of compounds to internal standard peak area ratios versus drug concentrations.

[4] = plasma, PO 10 mg/kg in 10% acacia, Example 1 dosed as mesylate salt

Compound: Cn1cc(-c2ccc3nnc(Sc4ccc5nn(C)cc5c4)n3n2)cn1 [Example 1, 6-(1-Methyl-1H-pyrazol-4-yl)-3-(2-methyl-2H-indazol-5-ylthio)-[1,2,4]triazolo[4,3-b]pyridazine]
- Mean Tumor Volume ± Standard Error ([1]; 2 mg/kg oral twice a day for 28 days): 1229 ± 83 mm^3
- Mean Tumor Volume ± Standard Error ([1]; 4 mg/kg oral twice a day for 28 days): 1085 ± 256 mm^3
- Mean Tumor Volume ± Standard Error ([1]; 8 mg/kg oral twice a day for 28 days): 627 ± 74 mm^3
- Mean Tumor Volume ± Standard Error ([1]; 16 mg/kg oral twice a day for 28 days): 554 ± 47 mm^3
- Mean Tumor Volume ± Standard Error ([1]; 32 mg/kg oral twice a day for 28 days): 273 ± 42 mm^3
- solubility at 18 h ([2]; 0.01N HCl, simulated gastric fluid, read-out: Dynamic solubility, 0.01N HCl): 11 µg/mL (≈ 30.4 µM)
- solubility at 18 h ([2]; 0.1N HCl, simulated gastric fluid, read-out: Dynamic solubility, 0.1N HCl): 33 µg/mL (≈ 91.1 µM)
- fold more soluble than the reference compound, SIF fasted ([2]; SIF fasted state): approximately 13 fold
- fold more soluble than the reference compound, SIF fed ([2]; SIF fed state): ~14 fold
- solubility at 18 h ([2]; aqueous buffer, pH ≧ 4 phosphate buffer, read-out: Dynamic solubility, pH ≧ 4 buffer): ~10 µg/mL (≈ 27.6 µM)
- solubility at 18 h ([2]; fassif, fasted state simulated intestinal fluid pH 6.5, 18 h ambient, read-out: Dynamic solubility, SIF Fasted): 13 µg/mL (≈ 35.9 µM)
- solubility at 18 h ([2]; fessif, fed state simulated intestinal fluid pH 5.0, 18 h ambient, read-out: Dynamic solubility, SIF Fed): 70 µg/mL (≈ 193 µM)
- solubility at 18 h ([2]; simulated gastric fluid, 18 h ambient, read-out: Dynamic solubility, SGF): 52 µg/mL (≈ 143 µM)
- solubility at 18 h ([2]; water, read-out: Dynamic solubility, Water): 9 µg/mL (≈ 24.8 µM)
- fold increase in oral bioavailability vs reference compound [3]: 4.5 fold
- fold longer terminal elimination half life vs reference compound ([3]; 1 mg/kg intravenous dose): 4 fold
- fold lower plasma clearance vs reference compound ([3]; 1 mg/kg intravenous dose): 18 fold
- fold higher exposure by peak plasma concentration vs reference compound ([3]; 10 mg/kg oral dose, 10% acacia): 57 fold
- fold higher exposure by plasma AUC vs reference compound ([3]; 10 mg/kg oral dose, 10% acacia): 93 fold
- clearance ([3]; plasma, IV 1 mg/kg solution, Example 1 dosed as mesylate salt): 1.7 mL/min/kg
- half-life ([3]; plasma, IV 1 mg/kg solution, Example 1 dosed as mesylate salt, read-out: T½ (converted)): 2.3 h
- Vd ([3]; plasma, IV 1 mg/kg solution, Example 1 dosed as mesylate salt, read-out: Vdss): 0.3 L/kg
- AUC [3, 4]: 73800 ng·h/mL
- Cmax [3, 4]: 9400 ng/mL
- Tmax [3, 4]: 3.33 h
- bioavailability ([3]; plasma, PO 10 mg/kg vs IV 1 mg/kg, Example 1 dosed as mesylate salt, read-out: F % (oral bioavailability)): 65.8%
